Consider 6 molecules from PubChem BioAssay (NCI).

Among the test systems are OVCAR-3 ovarian; CCRF-CEM leukemia; NCI-H522 lung; HCT-116 colon; OVCAR-4 ovarian; SR leukemia; HL-60(TB) leukemia; UO-31 renal; OVCAR-5 ovarian; SNB-75 CNS.
Experiment in all cases: NCI tumour cell line growth inhibition, 48 h

Molecules are shown by their SMILES.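 Where inhibition never reached the appropriate level, the endpoint shown equals the highest concentration tested. Otherwise, values were interpolated linearly from a five-concentration, 48-hour dose response in 96-well plates. GI50: concentration for 50% inhibition of growth. TGI denotes the concentration required for complete inhibition of growth.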

As for `COC(=O)C#Cc1ccc([N+](=O)[O-])cc1`, the TGI in the assay with OVCAR-3 ovarian is 2.93 µM; in the assay with CCRF-CEM leukemia, 2.27 µM; in the assay with NCI-H522 lung it was 3.47 µM; in the assay with HCT-116 colon it was 3.46 µM; with OVCAR-4 ovarian, 3.5 µM; in the assay on SR leukemia, 1.07 µM. For the same molecule, the TGI in the assay on HL-60(TB) leukemia came to 4.32 µM; in the assay on UO-31 renal it was 2.85 µM; in the assay on OVCAR-5 ovarian it was 4.34 µM; with SNB-75 CNS, 7.34 µM.
For `CC(=O)OCC1OC(S[As](C)C)C(OC(C)=O)C1OC(C)=O` (stereo not given), the GI50 in the assay with OVCAR-3 ovarian was 0.0391 µM; in the assay with CCRF-CEM leukemia, 0.19 µM; in the assay with NCI-H522 lung it was 0.139 µM; in the assay with HCT-116 colon, 0.226 µM; in the assay with OVCAR-4 ovarian, 1.15 µM; in the assay with SR leukemia it was 0.025 µM. Besides, the GI50 is 0.0813 µM with HL-60(TB) leukemia, 0.122 µM with UO-31 renal, 0.481 µM in the assay on OVCAR-5 ovarian and 0.511 µM with SNB-75 CNS. Also, the TGI with OVCAR-3 ovarian was found to be 0.151 µM; in the assay on CCRF-CEM leukemia, 1.34 µM; in the assay on NCI-H522 lung, 0.528 µM; in the assay on HCT-116 colon, 1.38 µM; in the assay with OVCAR-4 ovarian, 8.09 µM; with SR leukemia, 0.29 µM. The TGI is 0.648 µM with HL-60(TB) leukemia, 1.02 µM in the assay on UO-31 renal, 2.17 µM in the assay with OVCAR-5 ovarian and 1.99 µM in the assay with SNB-75 CNS.
In the case of `CC/C(=C(\CC)c1ccc(OCCN(CC)CC)cc1)c1ccc(OCCN(CC)CC)cc1`, the GI50 with OVCAR-3 ovarian is 3.45 µM; with CCRF-CEM leukemia, 2.51 µM; with NCI-H522 lung, 1.83 µM; in the assay with HCT-116 colon, 1.03 µM; in the assay on OVCAR-4 ovarian it was 3.13 µM; in the assay with SR leukemia it was 1.38 µM. Moreover, the GI50 with HL-60(TB) leukemia is 3.8 µM; in the assay on UO-31 renal it was 0.996 µM; in the assay on OVCAR-5 ovarian it was 3.96 µM; with SNB-75 CNS it was 2.83 µM. Besides, the TGI is 16.1 µM in the assay with OVCAR-3 ovarian; 25 µM with CCRF-CEM leukemia; 4.67 µM in the assay on NCI-H522 lung; 6.25 µM in the assay with HCT-116 colon; 12.3 µM in the assay on OVCAR-4 ovarian; 6.55 µM with SR leukemia. For the same molecule, the TGI is 9.84 µM with HL-60(TB) leukemia, 11.3 µM with UO-31 renal, 17.7 µM with OVCAR-5 ovarian and 11 µM with SNB-75 CNS.
As to `Cc1ccc(C(=O)NC2CCCCC2)cc1-c1ccc(C(=O)NCC2CC2)cc1`, the GI50 in the assay with OVCAR-3 ovarian is > 23 µM; in the assay with CCRF-CEM leukemia, > 25 µM; in the assay on NCI-H522 lung, 13.5 µM; in the assay with HCT-116 colon it was 20.9 µM; in the assay on OVCAR-4 ovarian it was > 25 µM; in the assay with SR leukemia, > 25 µM. Further, the GI50 with HL-60(TB) leukemia is > 25 µM; in the assay on UO-31 renal, > 19.9 µM; with OVCAR-5 ovarian it was > 25 µM; in the assay with SNB-75 CNS it was > 25 µM. For the same molecule, the TGI in the assay with OVCAR-3 ovarian, in the assay with CCRF-CEM leukemia, in the assay on NCI-H522 lung, in the assay on HCT-116 colon, in the assay on OVCAR-4 ovarian and in the assay on SR leukemia was > 25 µM in each case. Also, the TGI in the assay on HL-60(TB) leukemia, in the assay on UO-31 renal, with OVCAR-5 ovarian and in the assay on SNB-75 CNS was > 25 µM in each case.
Take `Cc1cc(C)nc(SC2=C(Nc3cccc(Cl)c3)C(=O)N(Cc3ccccc3)C2=O)n1`: the GI50 in the assay with OVCAR-3 ovarian, in the assay on CCRF-CEM leukemia, in the assay with NCI-H522 lung, in the assay with HCT-116 colon, with OVCAR-4 ovarian and with SR leukemia was > 170 µM in each case. The GI50 in the assay on HL-60(TB) leukemia, with UO-31 renal, with OVCAR-5 ovarian and in the assay with SNB-75 CNS was > 170 µM throughout. The TGI in the assay with OVCAR-3 ovarian, with CCRF-CEM leukemia, in the assay with NCI-H522 lung, in the assay with HCT-116 colon, in the assay with OVCAR-4 ovarian and in the assay with SR leukemia was > 170 µM throughout. For the same molecule, the TGI with HL-60(TB) leukemia, in the assay on UO-31 renal, in the assay with OVCAR-5 ovarian and in the assay on SNB-75 CNS was > 170 µM throughout.
As for `C=C[C@]1(C)C=C2C(=O)[C@@]3(O)OC(=O)[C@@]4(CCCC(C)(C)[C@H]34)[C@@]2(O)CC1`, the GI50 with OVCAR-3 ovarian is 1.08 µM; in the assay with CCRF-CEM leukemia, 0.383 µM; in the assay on NCI-H522 lung, 0.57 µM; in the assay with HCT-116 colon, 1.3 µM; in the assay on OVCAR-4 ovarian, 1.05 µM; in the assay on SR leukemia, 1.03 µM. For the same molecule, the GI50 with HL-60(TB) leukemia was 1.22 µM; with UO-31 renal, 1.31 µM; in the assay on OVCAR-5 ovarian, 1.97 µM; in the assay with SNB-75 CNS, 1.09 µM. Moreover, the TGI in the assay with OVCAR-3 ovarian is 2.52 µM; in the assay with CCRF-CEM leukemia, 10.7 µM; in the assay on NCI-H522 lung, 2.03 µM; in the assay on HCT-116 colon it was 2.86 µM; in the assay with OVCAR-4 ovarian, 2.87 µM; in the assay on SR leukemia it was 8.5 µM. Besides, the TGI stood at 4.43 µM in the assay with HL-60(TB) leukemia, 2.66 µM in the assay with UO-31 renal, 3.85 µM with OVCAR-5 ovarian and 2.45 µM with SNB-75 CNS.
